# Structures can show the parent of a compound that is named as a salt.
# How the values were obtained:
# [1] = system: EGF receptor tyrosine kinase; details: Fry et al., Science, 1994, 265, 1093; cited from earlier work
# [2] = target: T1, EGF receptor tyrosine kinase (Homo sapiens, UniProt P00533); assay: Test (a): in vitro inhibition of the enzyme EGF receptor tyrosine kinase (partially purified from A-431 cells); format: biochemical; details: EGF receptor tyrosine kinase from A-431 cells
# T1 construct: Receptor tyrosine kinase was obtained in partially purified form from A-431 cells; endogenous in cells; host or cells: A-431 cells (human vulval carcinoma)
# Experimental: (a) An in vitro assay which determines the ability of a test compound to inhibit the enzyme EGF receptor tyrosine kinase. Receptor tyrosine kinase was obtained in partially purified form from A-431 cells (derived from human vulval carcinoma) by procedures related to those described by Carpenter et al., J. Biol. Chem., 1979, 254, 4884, Cohen et al., J. Biol. Chem., 1982, 257, 1523 and by Braun et al., J. Biol. Chem., 1984, 259, 2051.
# A-431 cells were grown to confluence using Dulbecco's modified Eagle's medium (DHEM) containing 5% fetal calf serum (FCS). The obtained cells were homogenised in a hypotonic borate/EDTA buffer at pH 10.1. The homogenate was centrifuged at 400 g for 10 minutes at 0°-4° C. The supernatant was centrifuged at 25,000 g for 30 minutes at 0°-4° C. The pelleted material was suspended in 30 mM Hepes buffer at pH 7.4 containing 5% glycerol, 4 mM benzamidine and 1% Triton X-100, stirred for 1 hour at 0°-4° C., and recentrifuged at 100,000 g for 1 hour at 0°-4° C. The supernatant, containing solubilised receptor tyrosine kinase, was stored in liquid nitrogen.
# For test purposes 40 μl of the enzyme solution so obtained was added to a mixture of 400 μl of a mixture of 150 mM Hepes buffer at pH 7.4, 500 μM sodium orthovanadate, 0.1% Triton X-100, 10% glycerol, 200 μl water, 80 μl of 25 mH DTT and 80 μl of a mixture of 12.5 mM manganese chloride, 125 mM magnesium chloride and distilled water. There was thus obtained the test enzyme solution.
# Each test compound was dissolved in dimethylsulphoxide (DMSO) to give a 50 mM solution which was diluted with 40 mM Hepes buffer containing 0.1% Triton X-100, 10% glycerol and 10% DMSO to give a 500 μM solution. Equal volumes of this solution and a solution of epidermal growth factor (EGF; 20 μg/ml) were mixed.
# [γ-^32 P]ATP (3000 Ci/mM, 250 μCi) was diluted to a volume of 2 ml by the addition of a solution of ATP (100 μM) in distilled water. An equal volume of a 4 mg/ml solution of the peptide Arg-Arg-Leu-Ile-Glu-Asp-Ala-Glu-Tyr-Ala-Ala-Arg-Gly in a mixture of 40 mH Hepes buffer at pH 7.4, 0.1% Triton X-100 and 10% glycerol was added.
# The test compound/EGF mixture solution (5 μl) was added to the test enzyme solution (10 μl) and the mixture was incubated at 0°-4° C. for 30 minutes. The ATP/peptide mixture (10 μl) was added and the mixture was incubated at 25° C. for 10 minutes. The phosphorylation reaction was terminated by the addition of 5% trichloroacetic acid (40 μl) and bovine serum albumin (BSA; 1 mg/ml, 5 μl). The mixture was allowed to stand at 4° C. for 30 minutes and then centrifuged. An aliquot (40 μl) of the supernatant was placed onto a strip of Whatman p 81 phosphocellulose paper. The strip was washed in 75 mH phosphoric acid (4×10 ml) and blotted dry. Radioactivity present in the filter paper was measured using a liquid scintillation counter (Sequence A). The reaction sequence was repeated in the absence of the EGF (Sequence B) and again in the absence of the test compound (Sequence C).
# Receptor tyrosine kinase inhibition was calculated as follows: [formula]
# The extent of inhibition was then determined at a range of concentrations of test compound to give an IC50 value.
# [3] = system: human naso-pharyngeal cancer cell line KB; assay: Test (b): inhibition of the EGF-stimulated growth of the human naso-pharyngeal cancer cell line KB; format: cell-based; details: 72 h, KB cells, EGF (10 ng/ml), 3 days, MTT
# Experimental: (b) An in vitro assay which determines the ability of a test compound to inhibit the EGF-stimulated growth of the human naso-pharyngeal cancer cell line KB.
# KB cells were seeded into wells at a density of 1×10^4 -1.5×10^4 cells per well and grown for 24 hours in DHEM supplemented with 5% FCS (charcoal-stripped). Cell growth was determined after incubation for 3 days by the extent of metabolism of MTT tetrazolium dye to furnish a bluish colour. Cell growth was then determined in the presence of EGF (10 ng/ml) or in the presence of EGF (10 ng/ml) and a test compound at a range of concentrations. An IC50 value could then be calculated.
# [4] = system: liver hepatocyte growth caused by the administration of the growth factor TGFα; assay: Test (c): in vivo inhibition of TGFα-stimulated liver hepatocyte growth in male rats (BrdU uptake); details: Rattus norvegicus, usually oral, TGFα 400 μg/kg subcutaneously, approximate ED50, BrdU uptake
# Experimental: (c) An in vivo assay in a group of male rats which determines the ability of a test compound (usually administered orally as a ball-milled suspension in 0.5% polysorbate) to inhibit the stimulation of liver hepatocyte growth caused by the administration of the growth factor TGFα (400 μg/kg subcutaneously, usually dosed twice, 3 and 7 hours respectively after the administration of the test compound).
# In a control group of rats, the administration of TGFα causes on average a 5-fold stimulation of liver hepatocyte growth.
# Cell-growth in the control and test animals is determined as follows:
# On the morning of the day after the dosing of the test compound (or 0.5% polysorbate in the control group), the animals are dosed with bromodeoxyuridine (BrdU; 100 mg/kg intraperitoneally). The animals are killed four hours later and the livers are excised.
# Further tests were carried out using a range of doses of the test compounds to allow the calculation of an approximate ED50 value for the inhibition of liver hepatocyte proliferation as determined by inhibition of the uptake of BrdU.
# [5] = system: human mammary carcinoma which expresses EGF receptor tyrosine kinase; details: athymic nude mice; Toi et al., 1990; cited from earlier work
# [6] = system: another carcinoma which does not express EGF receptor tyrosine kinase; details: Toi et al., 1990; cited from earlier work
# T1 sequence (P00533 25-1210): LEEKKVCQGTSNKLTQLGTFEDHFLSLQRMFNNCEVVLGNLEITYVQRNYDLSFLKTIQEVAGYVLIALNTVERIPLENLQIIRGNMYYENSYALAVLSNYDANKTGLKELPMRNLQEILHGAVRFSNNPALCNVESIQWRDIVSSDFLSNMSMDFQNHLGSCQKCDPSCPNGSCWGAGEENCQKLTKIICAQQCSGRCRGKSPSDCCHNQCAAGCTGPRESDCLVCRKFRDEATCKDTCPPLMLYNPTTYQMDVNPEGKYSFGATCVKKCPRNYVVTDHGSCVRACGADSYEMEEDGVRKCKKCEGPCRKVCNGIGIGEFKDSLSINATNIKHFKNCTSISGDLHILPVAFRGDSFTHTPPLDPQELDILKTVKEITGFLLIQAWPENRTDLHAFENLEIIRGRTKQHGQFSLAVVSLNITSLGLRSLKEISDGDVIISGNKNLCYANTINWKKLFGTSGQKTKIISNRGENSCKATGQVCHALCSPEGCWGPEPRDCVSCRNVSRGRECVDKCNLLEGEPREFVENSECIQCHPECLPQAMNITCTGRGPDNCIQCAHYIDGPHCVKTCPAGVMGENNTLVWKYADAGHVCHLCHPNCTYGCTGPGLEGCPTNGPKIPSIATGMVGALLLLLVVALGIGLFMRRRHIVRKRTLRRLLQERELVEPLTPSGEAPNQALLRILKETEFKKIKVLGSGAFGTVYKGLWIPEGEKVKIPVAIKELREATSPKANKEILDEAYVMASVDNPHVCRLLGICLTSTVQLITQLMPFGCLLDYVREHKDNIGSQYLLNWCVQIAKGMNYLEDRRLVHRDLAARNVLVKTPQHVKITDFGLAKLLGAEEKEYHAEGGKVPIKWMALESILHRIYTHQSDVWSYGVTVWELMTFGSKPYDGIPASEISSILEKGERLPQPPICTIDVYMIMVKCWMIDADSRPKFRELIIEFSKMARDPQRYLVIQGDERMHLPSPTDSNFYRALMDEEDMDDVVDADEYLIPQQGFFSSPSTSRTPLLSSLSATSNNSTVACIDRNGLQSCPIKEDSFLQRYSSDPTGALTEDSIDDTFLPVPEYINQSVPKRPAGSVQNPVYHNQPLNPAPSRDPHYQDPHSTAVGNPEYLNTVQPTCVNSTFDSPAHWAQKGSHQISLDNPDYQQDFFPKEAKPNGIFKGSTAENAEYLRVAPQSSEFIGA
Structure (SMILES),inhibitor of EGF receptor tyrosine kinase [1],IC50 [2],IC50 [3],ED50 [4],growth of transplanted carcinoma expressing EGF receptor tyrosine kinase [5],growth of carcinoma not expressing EGF receptor tyrosine kinase [6]
"COc1cc2ncnc(Nc3cccc(Br)c3)c2cc1OC [4-(3'-bromoanilino)-6,7-dimethoxyquinazoline]",highly potent inhibitor,–,–,–,–,–
"COc1cc2ncnc(Nc3ccc(Sc4ccccc4)c(Cl)c3)c2cc1OC [4-(3-chloro-4-phenylthioanilino)-6,7-dimethoxyquinazoline]",–,0.08 µM,1.3 µM,12.5 mg/kg,–,–
"COc1cc2ncnc(Nc3ccc(C(=O)c4ccccc4)c(Cl)c3)c2cc1OC.Cl [4-(4-benzoyl-3-chloroanilino)-6,7-dimethoxyquinazoline hydrochloride salt]",–,0.03 µM,0.38 µM,< 5 mg/kg,–,–
"COc1cc2ncnc(Nc3ccc(Cc4ccccc4)c(Cl)c3)c2cc1OC.I [4-(4-benzyl-3-chloroanilino)-6,7-dimethoxyquinazoline hydroiodide salt]",–,0.1 µM,1.2 µM,< 12.5 mg/kg,–,–
"COc1cc2ncnc(Nc3ccc(Sc4nccn4C)c(Cl)c3)c2cc1OC [4-[3-chloro-4-(1-methylimidazol-2-ylthio)anilino]-6,7-dimethoxyquinazolinedihydrochloride salt]",–,0.007 µM,0.2 µM,< 12.5 mg/kg,–,–
"COc1cc2ncnc(Nc3ccc(OCc4ccccn4)c(C)c3)c2cc1OC.Cl.Cl [6,7-dimethoxy-4-[3-methyl-4-(2-pyridylmethoxy)anilino]quinazoline dihydrochloride salt]",–,0.04 µM,0.93 µM,5 mg/kg,–,–
COc1cc2ncnc(Nc3ccc(OCc4ccccn4)c(C)c3)c2cc1OCCCN(C)C [6-(3-dimethylaminopropoxy)-7-methoxy-4-[3-methyl-4-(2-pyridylmethoxy)anilino]quinazoline],–,0.066 µM,0.43 µM,–,–,–
COc1cc2ncnc(Nc3ccc(OCc4ccccn4)c(C)c3)c2cc1OCCCN1CCOCC1 [7-methoxy-4-[3-methyl-4-(2-pyridylmethoxy)anilino]-6-(3-morpholinopropoxy)quinazoline],–,0.45 µM,2.09 µM,–,–,–
O=CN/C=C/c1cc(O)ccc1O [erbstatin],–,–,–,–,specifically attenuates the growth,without effect on the growth

# Source: patent US5821246A, “Aniline derivatives” (Zeneca Limited, priority 1994, dated 1998)
